Data published in patent publication US20250313563A1, “GLYCOGEN SYNTHASE KINASE 3 INHIBITORS AND USES THEREOF” (The Broad Institute, Inc., priority 2022, published 2025).
Like-named read-outs stand apart in the source and are kept apart here.

Experiments:
[1] = target: GSK3α (GST-full length GSK3α) (Homo sapiens (Human), UniProt P49840); assay: GSK3α TR-FRET kinase assay; assay type: biochemical
Method in brief: (§1)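 IC50 came from the normalized 665/615 nm TR-FRET ratio plotted against log compound concentration. The Tb-labelled pSer641 antibody and streptavidin-d2 detected phosphorylation of biotinylated S645-primed glycogen synthase peptide (200 nM) by 1 nM full-length GST-kinase. ATP was 4 μM for α, 2 μM for β, or 1 mM.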

[2] = target: GSK3b (GST-full length GSK3b) (Homo sapiens (Human), UniProt P49841); assay: GSK3b TR-FRET kinase assay; assay type: biochemical
Sequence of GSK3b (GST-full length GSK3b) (P49841 whole entry): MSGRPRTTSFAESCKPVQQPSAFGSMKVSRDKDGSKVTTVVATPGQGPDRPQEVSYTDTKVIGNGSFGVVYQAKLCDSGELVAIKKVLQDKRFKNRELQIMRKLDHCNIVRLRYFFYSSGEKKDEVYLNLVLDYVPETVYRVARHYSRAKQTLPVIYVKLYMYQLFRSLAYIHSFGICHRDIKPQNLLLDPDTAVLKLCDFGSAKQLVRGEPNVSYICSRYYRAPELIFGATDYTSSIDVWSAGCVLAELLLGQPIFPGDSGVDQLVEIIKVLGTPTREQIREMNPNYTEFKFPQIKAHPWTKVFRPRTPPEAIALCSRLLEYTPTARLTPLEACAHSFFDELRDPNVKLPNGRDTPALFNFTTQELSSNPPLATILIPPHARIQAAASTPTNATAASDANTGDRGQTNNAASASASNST
Method in brief: as §1

[3] = 1 nM GSK3α, 4 μM ATP, 30 minute preincubation, Table 16, read-out: GSK3-A TR-FRET BIOCHEMICAL (TR-FRET)
[4] = 1 nM GSK3b, 2 μM ATP, 30 minute preincubation, Table 16, read-out: GSK3-B TR-FRET BIOCHEMICAL (TR-FRET)
[5] = 1 nM GSK3α, 4 μM ATP, 30 minute preincubation, read-out: GSK3-A TR-FRET BIOCHEMICAL (TR-FRET), IC50
[6] = 1 nM GSK3b, 2 μM ATP, 30 minute preincubation, read-out: GSK3-B TR-FRET BIOCHEMICAL (TR-FRET), IC50
[7] = GSK3-A (TR-FRET 1 mM ATP), GMean, IC50, 1 mM ATP, geometric mean
[8] = GSK3-B (TR-FRET 1 mM ATP), GMean, IC50, 1 mM ATP, geometric mean
[9] = read-out: GSK3-A (TR-FRET 1 mM ATP), GMean, IC50, 1 mM ATP, geometric mean
[10] = read-out: GSK3-B (TR-FRET 1 mM ATP), GMean, IC50, 1 mM ATP, geometric mean
[11] = 1 nM GSK3α, 4 μM ATP, 30 minute preincubation, geometric mean, read-out: GSK3-A TR-FRET BIOCHEMICAL (TR-FRET), GMean, IC50
[12] = 1 nM GSK3b, 2 μM ATP, 30 minute preincubation, geometric mean, read-out: GSK3-B TR-FRET BIOCHEMICAL (TR-FRET), GMean, IC50

Sequence of GSK3α (GST-full length GSK3α) (P49840 whole entry): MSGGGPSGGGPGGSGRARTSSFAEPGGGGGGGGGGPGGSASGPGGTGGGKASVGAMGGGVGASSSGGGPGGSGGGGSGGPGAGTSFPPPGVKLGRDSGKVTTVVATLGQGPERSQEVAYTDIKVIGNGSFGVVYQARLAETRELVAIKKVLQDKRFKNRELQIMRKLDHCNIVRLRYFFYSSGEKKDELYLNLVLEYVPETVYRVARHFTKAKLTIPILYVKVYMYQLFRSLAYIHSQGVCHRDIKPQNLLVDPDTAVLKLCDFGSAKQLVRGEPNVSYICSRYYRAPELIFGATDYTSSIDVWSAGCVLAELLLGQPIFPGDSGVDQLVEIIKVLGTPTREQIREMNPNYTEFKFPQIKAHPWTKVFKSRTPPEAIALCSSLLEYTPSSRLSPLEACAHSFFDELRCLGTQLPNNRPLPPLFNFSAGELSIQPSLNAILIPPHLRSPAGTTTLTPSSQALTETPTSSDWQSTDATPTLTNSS

IC50 [1, 3] [nM] | IC50 [2, 4] [nM] | Structure (SMILES) | also measured
≤ 100 | 100 to 1000 | Cc1ccc(S(=O)(=O)N2CCC3(CC2)C2=C(CC(C)(C)CC2=O)Nc2n[nH]cc23)cc1 [Compound 947459] | 
≤ 100 | ≤ 100 | Cc1c(S(=O)(=O)N2CCC3(CC2)C2=C(CC(C)(C)CC2=O)Nc2n[nH]cc23)cnn1C [Compound 947460] | 
 |  | CC1(C)CC(=O)C2=C(C1)Nc1n[nH]cc1C21CCN(S(=O)(=O)c2ccn(-c3ccccc3)n2)CC1 [Compound 947461] | IC50 [1, 5]: ≤ 100 nM; IC50 [2, 6]: ≤ 100 nM
≤ 100 | ≤ 100 | CC1(C)CC(=O)C2=C(C1)Nc1n[nH]cc1C21CCN(S(=O)(=O)c2cnc3ccccc3c2)CC1 [Compound 947462] | IC50 [1, 7]: 100 to 1000 nM; IC50 [2, 8]: 1000 to 5000 nM
≤ 100 | 100 to 1000 | CC1(C)CC(=O)C2=C(C1)Nc1n[nH]cc1C21CCN(S(=O)(=O)c2cnccc2C(F)(F)F)CC1 [Compound 947463] | 
 |  | CC1(C)CC(=O)C2=C(C1)Nc1n[nH]cc1C21CCN(S(=O)(=O)c2cccc3c2OCCO3)CC1 [Compound 947464] | IC50 [1, 5]: ≤ 100 nM; IC50 [1, 7]: ≤ 100 nM; IC50 [2, 6]: ≤ 100 nM; IC50 [2, 8]: 100 to 1000 nM
≤ 100 | ≤ 100 | COc1cncc(S(=O)(=O)N2CCC3(CC2)C2=C(CC(C)(C)CC2=O)Nc2n[nH]cc23)c1 [Compound 947465] | 
≤ 100 | 100 to 1000 | CC1(C)CC(=O)C2=C(C1)Nc1n[nH]cc1C21CCN(S(=O)(=O)c2cnnn2-c2ccccc2)CC1 [Compound 947466] | 
≤ 100 | 100 to 1000 | CC1(C)CC(=O)C2=C(C1)Nc1n[nH]cc1C21CCN(S(=O)(=O)c2cnc3n2CCC3)CC1 [Compound 947467] | 
≤ 100 | ≤ 100 | Cc1ccc(S(=O)(=O)N2CCC3(CC2)C2=C(CC(C)(C)CC2=O)Nc2n[nH]cc23)c(C)c1 [Compound 947468] | 
≤ 100 | ≤ 100 | CC1(C)CC(=O)C2=C(C1)Nc1n[nH]cc1C21CCN(S(=O)(=O)c2cccc3ncccc23)CC1 [Compound 947469] | 
≤ 100 | ≤ 100 | CC1(C)CC(=O)C2=C(C1)Nc1n[nH]cc1C21CCN(S(=O)(=O)c2cccc3c2CCCC3)CC1 [Compound 947470] | 
≤ 100 | 100 to 1000 | Cc1ccc(C)c(S(=O)(=O)N2CCC3(CC2)C2=C(CC(C)(C)CC2=O)Nc2n[nH]cc23)c1 [Compound 947471] | 
≤ 100 | 100 to 1000 | CC1(C)CC(=O)C2=C(C1)Nc1n[nH]cc1C21CCN(S(=O)(=O)c2cn3c(n2)CCCC3)CC1 [Compound 947472] | 
100 to 1000 | 100 to 1000 | CC(C)c1ccccc1S(=O)(=O)N1CCC2(CC1)C1=C(CC(C)(C)CC1=O)Nc1n[nH]cc12 [Compound 947473] | 
≤ 100 | ≤ 100 | CC1(C)CC(=O)C2=C(C1)Nc1n[nH]cc1C21CCN(S(=O)(=O)c2cnn3c2CCCC3)CC1 [Compound 947474] | 
≤ 100 | ≤ 100 | Cc1cc(S(=O)(=O)N2CCC3(CC2)C2=C(CC(C)(C)CC2=O)Nc2n[nH]cc23)ccc1Cl [Compound 947475] | 
 |  | CC1(C)CC(=O)C2=C(C1)Nc1n[nH]cc1C21CCN(S(=O)(=O)c2ccc3ccccc3n2)CC1 [Compound 947476] | IC50 [1, 5]: ≤ 100 nM; IC50 [2, 6]: ≤ 100 nM
≤ 100 | ≤ 100 | COCCn1cc(S(=O)(=O)N2CCC3(CC2)C2=C(CC(C)(C)CC2=O)Nc2n[nH]cc23)cn1 [Compound 947477] | 
≤ 100 | ≤ 100 | COc1ccc(S(=O)(=O)N2CCC3(CC2)C2=C(CC(C)(C)CC2=O)Nc2n[nH]cc23)cc1F [Compound 947478] | 
≤ 100 | ≤ 100 | CC1(C)CC(=O)C2=C(C1)Nc1n[nH]cc1C21CCN(S(=O)(=O)c2ccccc2C#N)CC1 [Compound 947479] | 

IC50 [1, 3] [nM] | IC50 [2, 4] [nM] | Structure (SMILES) | also measured
≤ 100 | ≤ 100 | CC1(C)CC(=O)C2=C(C1)Nc1n[nH]cc1C21CCN(S(=O)(=O)c2cnc3n2CCCC3)CC1 [Compound 947480] | 
≤ 100 | ≤ 100 | Cc1cc(S(=O)(=O)N2CCC3(CC2)C2=C(CC(C)(C)CC2=O)Nc2n[nH]cc23)ccn1 [Compound 947481] | 
≤ 100 | ≤ 100 | Cc1ccc(S(=O)(=O)N2CCC3(CC2)C2=C(CC(C)(C)CC2=O)Nc2n[nH]cc23)cn1 [Compound 947482] | 
≤ 100 | ≤ 100 | CC1(C)CC(=O)C2=C(C1)Nc1n[nH]cc1C21CCN(S(=O)(=O)c2cnn3c2OCCC3)CC1 [Compound 947483] | 
 |  | CC1(C)CC(=O)C2=C(C1)Nc1n[nH]cc1C21CCN(S(=O)(=O)c2c(F)cc(F)cc2F)CC1 [Compound 947484] | IC50 [1, 5]: ≤ 100 nM; IC50 [2, 6]: ≤ 100 nM
 |  | CC1(C)CC(=O)C2=C(C1)Nc1n[nH]cc1C21COC2(CN(C(=O)C(F)F)C2)C1 (centres unmarked) [Compound 947485] | IC50 [1, 5]: ≤ 100 nM; IC50 [2, 6]: ≤ 100 nM
 |  | CC1(C)CC(=O)C2=C(C1)Nc1n[nH]cc1C21COC2(CN(C(=O)C3CCC(F)C3)C2)C1 (centres unmarked) [Compound 947486] | IC50 [1, 5]: ≤ 100 nM; IC50 [2, 6]: ≤ 100 nM
 |  | CC1(C)CC(=O)C2=C(C1)Nc1n[nH]cc1C21COC2(CN(C(=O)C3(F)CC3)C2)C1 (centres unmarked) [Compound 947487] | IC50 [1, 5]: ≤ 100 nM; IC50 [2, 6]: ≤ 100 nM
≤ 100 | ≤ 100 | CCC1(c2cccc(-c3c(C)cnn3C)c2)C2=C(CC(C)(C)CC2=O)Nc2n[nH]cc21 (centres unmarked) [Compound 947491] | 
≤ 100 | 100 to 1000 | CCC1(c2cccc(-c3cnn4c3CCC4)c2)C2=C(CC(C)(C)CC2=O)Nc2n[nH]cc21 (centres unmarked) [Compound 947494] | 
1000 to 5000 | > 5000 | CC[C@]1(c2cccc(Cc3ncccn3)c2)C2=C(CC(C)(C)CC2=O)Nc2n[nH]cc21 [Compound 947499] | IC50 [1, 9]: > 5000 nM; IC50 [2, 10]: > 5000 nM
≤ 100 | ≤ 100 | CC[C@@]1(c2cccc(-c3c(F)cncc3OC)c2)C2=C(CC(C)(C)CC2=O)Nc2n[nH]cc21 [Compound 947511] | IC50 [1, 9]: ≤ 100 nM; IC50 [2, 10]: ≤ 100 nM
100 to 1000 | 100 to 1000 | CCC1(c2cccc(Cc3ncccc3C(F)(F)F)c2)C2=C(CC(C)(C)CC2=O)Nc2n[nH]cc21 (centres unmarked) [Compound 947548] | 
 |  | CCC1(c2cccc(S(=O)(=O)C3CC3)c2)C2=C(CC(C)(C)NC2=O)Nc2n[nH]c(C)c21 (centres unmarked) [Compound 947562] | IC50 [1, 11]: ≤ 100 nM; IC50 [2, 12]: ≤ 100 nM
 |  | CCC1(c2cccc(-c3ccnc(C)c3F)c2)C2=C(CC(C)(C)NC2=O)Nc2n[nH]c(C)c21 (centres unmarked) [Compound 947563] | IC50 [1, 11]: ≤ 100 nM; IC50 [2, 12]: 100 to 1000 nM
 |  | CCC1(c2cccc(N3CCOCC3)c2)C2=C(CC(C)(C)NC2=O)Nc2n[nH]c(C)c21 (centres unmarked) [Compound 947564] | IC50 [1, 11]: 100 to 1000 nM; IC50 [2, 12]: 100 to 1000 nM
 |  | CCC1(c2cccc(N3CCCCC3)c2)C2=C(CC(C)(C)NC2=O)Nc2n[nH]cc21 (centres unmarked) [Compound 947566] | IC50 [1, 11]: 1000 to 5000 nM; IC50 [2, 12]: 1000 to 5000 nM
 |  | CCC1(c2cccc(-c3c(C)nn(C)c3C)c2)C2=C(CC(C)(C)NC2=O)Nc2n[nH]c(C(F)(F)F)c21 (centres unmarked) [Compound 947568] | IC50 [1, 11]: ≤ 100 nM; IC50 [2, 12]: ≤ 100 nM
≤ 100 | ≤ 100 | CCC1(c2cccc(-c3ccncc3S(C)(=O)=O)c2)C2=C(CC(C)(C)CC2=O)Nc2n[nH]cc21 (centres unmarked) [Compound 947569] | 
 |  | CC[C@]1(c2cccc(-c3c(C)nn(C)c3C)c2)C2=C(CC(C)(C)NC2=O)Nc2n[nH]c(C)c21 [Compound 947573] | IC50 [1, 11]: 100 to 1000 nM; IC50 [2, 12]: 1000 to 5000 nM
 |  | CC[C@]1(c2cccc(-c3ccncc3C)c2)C2=C(CC(C)(C)NC2=O)Nc2n[nH]cc21 [Compound 947574] | IC50 [1, 11]: ≤ 100 nM; IC50 [2, 12]: ≤ 100 nM
